Entries after “also recorded” stand apart in the source; their conditions may differ.
Tests used:
MERS-CoV M^pro = MERS-CoV M^pro (Middle East respiratory syndrome-related coronavirus, UniProt K9N7C7); experiment: biochemical; settings: for inhibition at 100 µM: read-out: MERS-CoV M^pro activity inhibited to
[1] = biological target: recombinant M^pro of MERS-CoV (Middle East respiratory syndrome-related coronavirus, UniProt K9N7C7); experiment: biochemical; assay type: binding
[2] = test system: human diploid MRC-5 lung fibroblasts; experiment: Resazurin cell viability assay; settings: MRC-5; tested range 0.3–100 µM; 72 h
[3] = Resazurin cell viability assay; settings: human, MRC-5 lung fibroblasts
[4] = test system: human immunodeficiency virus (HIV); settings: orally administered, 0.5 mg/kg daily; limited number of patients; cited from earlier work
SARS-CoV-2 M^pro = biological target: T1, SARS-CoV-2 M^pro (Severe acute respiratory syndrome coronavirus 2, UniProt P0DTD1); experiment: biochemical; settings: for inhibition at 100 µM: read-out: Inhibition of enzymatic activity
T1 construct: This main protease is located in nsp5; purchased AnaSpec

hepatitis C virus (HCV) = settings: chronic HCV infection; oral doses of 0.05 and 0.10 mg/kg/d; cited from earlier work
[5] = biological target: recombinant M^pro of SARS-CoV-1 (Severe acute respiratory syndrome coronavirus, UniProt P0C6X7); experiment: biochemical; assay type: binding
SARS-CoV-1 M^pro = SARS-CoV-1 M^pro (Severe acute respiratory syndrome coronavirus, UniProt P0C6X7); experiment: biochemical; settings: for inhibition at 100 µM: read-out: Inhibition of enzymatic activity
[6] = biological target: T2, recombinant M^pro of SARS-CoV-2 (Severe acute respiratory syndrome coronavirus 2, UniProt P0DTD1); experiment: biochemical; assay type: binding
T2 construct: This main protease is located in nsp5; purchased Bio-Techne

SARS-CoV-2 = settings: cited from earlier work

Sequence of MERS-CoV M^pro (K9N7C7 3248-3553 limits assumed): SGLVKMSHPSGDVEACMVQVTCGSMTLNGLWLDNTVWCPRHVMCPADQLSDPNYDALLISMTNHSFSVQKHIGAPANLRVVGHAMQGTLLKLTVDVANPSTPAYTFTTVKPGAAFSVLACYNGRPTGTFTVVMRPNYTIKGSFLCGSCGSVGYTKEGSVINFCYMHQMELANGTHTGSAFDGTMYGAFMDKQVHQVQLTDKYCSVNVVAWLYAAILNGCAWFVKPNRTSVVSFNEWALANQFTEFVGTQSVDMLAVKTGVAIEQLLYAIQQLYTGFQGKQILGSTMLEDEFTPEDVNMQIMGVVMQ
Sequence of recombinant M^pro of MERS-CoV (K9N7C7 3248-3553 limits assumed): as above

Cc1cc(O)c2c(=O)c3c(O)cc(O)c4c5c(O)cc(O)c6c(=O)c7c(O)cc(C)c8c1c2c(c34)c(c78)c65 [Hypericin]
IC50 (MERS-CoV M^pro): 49.7 ± 5.41 µM | Therapeutic Index (MERS-CoV M^pro): 1.11 | Kd [1]: 54.9 ± 13.8 µM | Inhibitory effect on cell viability [2]: slight toxicity | CC50 at 72 h [3]: 55.5 ± 2.2 µM | Antiretroviral activity in clinical trial [4]: without antiretroviral activity | IC50 (SARS-CoV-2 M^pro): 23.3 ± 1.21 µM | Percentage of activity of SARS-CoV-2 M^pro in the presence of compound (SARS-CoV-2 M^pro): 4.95% | Therapeutic Index (SARS-CoV-2 M^pro): 2.38 | inhibition at 100 µM (SARS-CoV-2 M^pro): > 50% | Anti-HCV activity in patients (hepatitis C virus (HCV)): without detectable anti-HCV activity | Kd [5]: 25.5 ± 13.6 µM | IC50 (SARS-CoV-1 M^pro): 19.4 ± 3.11 µM | Therapeutic Index (SARS-CoV-1 M^pro): 2.85 | Kd [6]: 7.73 ± 6.5 µM

COc1cc(-c2oc3cc(O)cc(O)c3c(=O)c2O)ccc1O [Isorhamnetin]
inhibition at 100 µM (MERS-CoV M^pro): 26.3% | Inhibitory effect on cell viability [2]: slight toxicity | CC50 at 72 h [3]: 36.8 ± 3.4 µM | IC50 (SARS-CoV-2 M^pro): 8.42 ± 1.15 µM | Percentage of activity of SARS-CoV-2 M^pro in the presence of compound (SARS-CoV-2 M^pro): 8.56% | Therapeutic Index (SARS-CoV-2 M^pro): 4.37 | inhibition at 100 µM (SARS-CoV-2 M^pro): > 50% | Kd [5]: 3.6 ± 2.6 µM | IC50 (SARS-CoV-1 M^pro): 13.1 ± 1.78 µM | Therapeutic Index (SARS-CoV-1 M^pro): 2.8 | Kd [6]: 4.37 ± 3.9 µM

O=c1cc(-c2ccc(O)c(O)c2)oc2cc(O)cc(O)c12 [Luteolin]
inhibition at 100 µM (MERS-CoV M^pro): 21.3% | IC50 (SARS-CoV-2 M^pro): 11.8 ± 1.27 µM | Percentage of activity of SARS-CoV-2 M^pro in the presence of compound (SARS-CoV-2 M^pro): 10.10% | inhibition at 100 µM (SARS-CoV-2 M^pro): > 50% | inhibition at 100 µM (SARS-CoV-1 M^pro): 44% | Kd [6]: 13.4 ± 2.7 µM

O=C(/C=C/c1ccc(O)c(O)c1)O[C@H](Cc1ccc(O)c(O)c1)C(=O)O [Rosmarinic acid]
inhibition at 100 µM (MERS-CoV M^pro): 14.9% | Inhibitory effect on cell viability [2]: did not show significant inhibitory effects; also recorded: did not inhibit | IC50 value, inhibition of SARS-CoV-2 replication (SARS-CoV-2): 25.47 µg/mL | IC50 (SARS-CoV-2 M^pro): 9.43 ± 0.46 µM | Percentage of activity of SARS-CoV-2 M^pro in the presence of compound (SARS-CoV-2 M^pro): 8.28% | inhibition at 100 µM (SARS-CoV-2 M^pro): > 50% | inhibition at 100 µM (SARS-CoV-1 M^pro): 31% | Kd [6]: 15.5 ± 4.77 µM

Source: PMC8952009 (Pharmaceuticals, 2022)
